Experimental data taken from patent publication US10947220B2, “Anti-proprotein convertase subtilisin kexin type 9 (anti-PCSK9) compounds and methods of using the same in the treatment and/or prevention of cardiovascular diseases” (Shifa Biomedical Corporation, priority 2016, dated 2021).
Like-named read-outs stand apart in the source and are kept apart here.

Legend:
LDLR = experiment: Recombinant LDLR upregulation in HEK-293 cells transfected with LDLR/PCSK9; format: cell-based, human; settings: recombinant LDLR upregulation assay
Description: HEK-293T cells were seeded in a DMEM containing 10% Fetal Bovine Serum media and incubated overnight at 37° C. Cells were transiently transfected with LDLR & PCSK9 cDNA constructs using the Lipofectamine-LTX as described above. After 24 hrs, cells were treated with different compounds and incubated for an additional 48 hrs. Cells were assayed as described above for LDLR expression.
HEK-293T cells were assayed as described in relation to FIG. 7.
We have constructed the expression vector of human LDLR under the control of the cytomegalovirus promoter-enhancer (pCMV-LDLR). In addition, a construct containing the PCSK9 (pCMV-PCSK9-FLAG) was described above. These constructs were used to transiently transfect mammalian cells, and both cell lysate and supernatant were subjected to SDS-PAGE and immunoblot analysis using an anti-PCSK9 or LDLR antibody. […] Addition of inhibitors of PCSK9 processing to the latter cells should result in decreased degradation of the LDLR and the appearance of the 160K Dalton band on the gel. Using this assay, we tested our compounds for their ability to reduce the degradation of the LDLR. HEK-293 cells were used in this assay. They were grown in 96-well plates overnight, and transfected with LDLR/PCSK9. Compounds dissolved in DMSO or vehicle were added to the culture media, and incubated for 24-48 hours; cells were lysed. Cell lysates were subjected to quantitation using the above immunoassay.

[1] = test system: PCSK9 synthesis, processing and secretion; experiment: Test for secreted PCSK9 (western blot) in transfected HEK-293T cells; format: cell-based; settings: 25 μM, 43 hours; cells and media
Description: HEK-293T cells were seeded into 96 well plates in a DMEM containing 10% Fetal Bovine Serum media and incubated overnight at 37° C. Cells were transiently transfected with cDNA construct using the Lipofectamine-LTX. Compounds (25 μM) or vehicle were added, followed by additional 43 hours of incubation. Cellular PCSK9, secreted PCSK9, and cell viability were analyzed as described in Example 2 below.
The SBC compounds were validated for their ability to affect PCSK9 synthesis, processing and secretion as described in relation to FIG. 5.
The increase in the level of recombinant LDLR in the presence of PCSK9 by the above compounds could be either due to inhibiting the binding of PCSK9 to the LDLR or by inhibiting the processing and secretion of PCSK9. To eliminate the possibility these compounds interfere with PCSK9 synthesis, processing or secretion, we tested the effect of these compounds on the processing and secretion of PCSK9 as described above. HEK-293T cells were seeded into 96-well plates in a DMEM containing 10% Fetal Bovine Serum media and incubated overnight at 37° C. Cells were transiently transfected with cDNA construct using the Lipofectamine-LTX. Compounds (25 μM) or vehicle were added, followed by additional 43 hours of incubation. Cellular PCSK9, secreted PCSK9, and cell viability were analyzed for PCSK9 secretion using western blot analysis, imaged and quantitated using a LAS-4000 (GE).

HepG2 cells = experiment: Uptake of fluorescent Dil-LDL in HepG2 cells transfected with PCSK9; format: cell-based; settings: 1.2 uM compound
Description: The SBC compounds were validated for their ability to increase uptake of Fluorescent Dil-LDL in HepG2 cells.
The SBC compounds were validated for their ability to increase uptake of Fluorescent Dil-LDL in HepG2 cells as described in FIG. 9.
In order to confirm that these PCSK9 antagonists upregulate functional LDLR, we tested the ability of these compounds to enhance the uptake of fluorescent Dil-LDL in HepG2 cells. Briefly, HepG2 cells transfected with PCSK9 (FIG. 4) were plated and allowed to grow overnight. Compounds were added to the cells followed by the addition of fluorescent Dil-LDL. Cells were washed extensively, and the fluorescent Dil-LDL taken up by the cells were measured using the Synergy 2 plate reader (FIG. 9 and FIG. 12). […] These compounds were selected for further analysis in the in vivo studies.

[2] = molecular target: T1, PCSK9/LDLR interaction (His-tagged PCSK9, recombinant LDLR-AB domain) (Homo sapiens, UniProt Q8NBP7); experiment: PCSK9/LDLR binding in vitro ELISA (Circulex kit)
T1 construct: purchased Circulex
T1 sequence (Q8NBP7 153-692): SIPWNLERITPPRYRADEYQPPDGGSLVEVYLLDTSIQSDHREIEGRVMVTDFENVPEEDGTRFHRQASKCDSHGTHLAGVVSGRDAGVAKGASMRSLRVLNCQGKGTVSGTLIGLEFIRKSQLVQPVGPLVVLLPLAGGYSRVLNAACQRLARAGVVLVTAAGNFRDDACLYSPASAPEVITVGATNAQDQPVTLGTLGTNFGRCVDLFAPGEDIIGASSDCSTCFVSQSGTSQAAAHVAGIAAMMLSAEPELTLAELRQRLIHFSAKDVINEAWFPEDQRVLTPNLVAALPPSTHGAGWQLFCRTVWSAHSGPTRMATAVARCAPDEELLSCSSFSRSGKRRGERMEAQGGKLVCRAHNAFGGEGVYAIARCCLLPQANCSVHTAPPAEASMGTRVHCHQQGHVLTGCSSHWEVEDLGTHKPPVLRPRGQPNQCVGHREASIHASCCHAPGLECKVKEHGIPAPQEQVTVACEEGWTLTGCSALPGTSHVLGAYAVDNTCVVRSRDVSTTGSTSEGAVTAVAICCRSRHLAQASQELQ
T1 sequence (Q8NBP7 31-152 partner limits assumed): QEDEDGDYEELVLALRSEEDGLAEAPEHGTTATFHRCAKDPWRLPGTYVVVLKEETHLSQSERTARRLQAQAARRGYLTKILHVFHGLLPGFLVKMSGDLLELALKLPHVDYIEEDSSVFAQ
Description: For screening inhibitors of the PCSK9/LDLR interaction, different concentrations (0.01 nM-100 μM) of selected compounds were incubated with His-tagged PCSK9 and then added to wells that were pre-coated with recombinant LDLR-AB domain. After incubation, the plate was washed and the amount of recombinant His-tagged PCSK9 was measured using the biotinylated anti-His-tag and horseradish peroxidase conjugated Streptavidin, and quantitated using a BioTek Synergy 2 plate reader. The effect of each compound on the PCSK9 binding to the recombinant LDLR-AB domain was calculated.
Testing of compounds acquired from commercial sources was performed in our binding assay for their potential to inhibit the PCSK9/LDLR interaction. Initial screening was done using 100 μM of the compounds. Each compound was added to the binding reaction mixture in triplicate and assayed as described above. From the screening, a number of compounds were identified to have an effect on LDLR upregulation as compared to control (see Example 3 vide infra) while having no effect on PCSK9 processing and secretion (see Example 2 vide infra). Exemplary 2-carboxyanilide indoles and 2-carboxanilide pyrroles of the formula I that had >20% inhibition at 100 uM are shown in FIG. 1. Fifty five (55) structurally related 2-carboxyanlide benzofurans (compounds of the formulas II-IV) were also acquired. Compounds that inhibited the PCSK9/LDLR interaction were selected and analyzed using different compound concentrations ranging from 100 μM to 0.01 nM. […] (FIG. 4). Based on this preliminary SAR, an additional 34 compounds were designed and synthesized around SBC-115,337, and the compounds were tested in our binding assay as described in FIG. 4. From the screening, a number of benzofuran compounds were determined to have IC50's>10 uM but less </=50 uM (FIG. 2).

plasma LDL-C = experiment: Efficacy in mice fed high fat diet (plasma LDL-C); format: in vivo, C57BL/6 mice
Description: C57/Black 6 mice and BalB/C mice were maintained on the HFD for 4 weeks. Blood plasma was collected at day 1 prior to injection of the SBC compounds. Blood plasma was collected at day 4, at 4 hours after the LPS injection, and again at 24 hours after LPS injection. Plasma cholesterol, LDL-C, HDL-C, and triglyceride levels were measured enzymatically.
Blood plasma was collected at day 1 prior to injection of the compounds. Blood plasma was collected again at day 5. Plasma LDL-C levels was measured enzymatically. (FIG. 15A) Representing the actual change in the LDL-C in mg/dL and (FIG. 15B) representing the % reduction of LDL-C after the administration of SBC-115,418 for 5 days.
SBC-115,337 was tested for efficacy in male mice (C57BL/6 mice). Mice were housed as four animals per cage under climate-controlled conditions of temperature (20-24° C.), humidity (60-70%), and alternating 12 h light/dark cycles. […]
Blood samples (75 μl) were collected 4 days after drug administration from the retro-orbital venous plexus via heparinized capillary tubes containing 2 USP units of ammonium heparin per tube (Carolina, Burlington, N.C.). […] Plasma cholesterol, LDL-C, HDL-C, and triglyceride levels were measured enzymatically.
Similarly, SBC-115,418 was tested in mice as described above. […] Plasma LDL-C levels were measured enzymatically. […]

[3] = Table 1 / FIG. 11, SAR around SBC-115,337, read-out: IC-50
[4] = bounds stated for compounds of FIG. 2 and FIG. 3, read-out: in vitro inhibition of the PCSK9/LDLR interaction (IC50)
[5] = compound concentrations 100 μM to 0.01 nM, FIG. 4, read-out: IC50, inhibition of the PCSK9/LDLR interaction

Row | Compound | IC50 [2, 3] [µM] | IC50 [2, 4] [µM] | IC50 [2, 5] [µM] | level of LDLR as compared to control (DMSO-treated cells) (LDLR) | effect on PCSK9 synthesis, processing and secretion [1] | fluorescent Dil-LDL uptake (HepG2 cells) | reduction in LDL-C levels relative to high fat diet animal levels (plasma LDL-C; 3 mg/kg subcutaneously daily for 4 days, with or without LPS (5 mg/Kg), FIG. 10) | reduction in LDL-C levels relative to high fat diet animal levels (plasma LDL-C; 10 mg/kg oral daily for 5 days, FIG. 15A-15B)
1 | CN(C(=O)c1ccc(NC(=O)c2cc3ccccc3o2)cc1)c1ccc(-c2nc3ccccc3o2)cc1 [SBC-115,423] | 8.2 | < 10 |  |  |  |  |  | 
2 | COc1ccc2oc(C(=O)Nc3ccc(C(N)=O)cc3)c(C)c2c1 [SBC-115,270] |  | < 10 | 7 |  |  | increase in fluorescently labeled LDL uptake |  | 
3 | O=C(Nc1ccc(-c2ncco2)cc1)c1ccc(NC(=O)c2cc3ccccc3o2)cc1 [SBC-115,433] | 2.4 | < 10 |  | significant increase in the level of LDLR | not due to its effect on synthesis and secretion of PCSK9 | significant increases in the Dil-LDL uptake |  | 
4 | COc1cccc2c(C)c(C(=O)Nc3ccc(C(=O)Nc4ccc(-c5ncco5)cc4)cc3)oc12 [SBC-115,445] | 2.2 | < 10 |  |  |  |  |  | 
5 | O=C(Nc1ccc(-c2nc3ccccc3o2)cc1)c1ccc(NC(=O)c2cc3ccccc3o2)cc1 [SBC-115,337] | 0.6 | < 10 | 0.5 |  |  | increase in fluorescently labeled LDL uptake | 20-25% | 
6 | COc1ccc2oc(C(=O)Nc3ccc(C(=O)Nc4ccc(-c5nc6ccccc6o5)cc4)cc3)c(C)c2c1 [SBC-115,418] | 1.6 | < 10 |  | significant increase in the level of LDLR | not due to its effect on synthesis and secretion of PCSK9 | significant increases in the Dil-LDL uptake |  | 20-25%
7 | COc1cccc2cc(C(=O)Nc3ccc4c(c3)C(=O)N(C)C4=O)oc12 [SBC-115,202] |  | < 10 | 9.5 |  |  | increase in fluorescently labeled LDL uptake |  | 

Second part, led by results:

Row | IC50 [2, 3] [µM] | IC50 [2, 4] [µM] | IC50 [2, 5] [µM] | Compound | level of LDLR as compared to control (DMSO-treated cells) (LDLR) | effect on PCSK9 synthesis, processing and secretion [1] | fluorescent Dil-LDL uptake (HepG2 cells) | reduction in LDL-C levels relative to high fat diet animal levels (plasma LDL-C; 3 mg/kg subcutaneously daily for 4 days, with or without LPS (5 mg/Kg), FIG. 10) | reduction in LDL-C levels relative to high fat diet animal levels (plasma LDL-C; 10 mg/kg oral daily for 5 days, FIG. 15A-15B)
8 | 1.7 | < 10 |  | NC(=O)c1ccc(NC(=O)c2ccc(NC(=O)c3cc4ccccc4o3)cc2)cc1 [SBC-115,424] | significant increase in the level of LDLR | not due to its effect on synthesis and secretion of PCSK9 | significant increases in the Dil-LDL uptake |  | 
9 | 1.1 | < 10 |  | O=C(Nc1ccc(C2=NCCO2)cc1)c1ccc(NC(=O)c2cc3ccccc3o2)cc1 [SBC-115,432] | significant increase in the level of LDLR | not due to its effect on synthesis and secretion of PCSK9 | significant increases in the Dil-LDL uptake |  | 
10 |  | < 10 |  | CN1C(=O)c2ccc(NC(=O)c3cc4ccccc4o3)cc2C1=O [SBC-115,341] |  |  |  |  | 
